Results on 2 molecules are retold here after publication PMC12130866, “Identification of the lydiamycin biosynthetic gene cluster in a plant pathogen guides structural revision and identification of molecular target” (Proceedings of the National Academy of Sciences of the …, 2025).

Converted amounts (≈) assume the structure as drawn. Numbered stars: 1 amine (or outer) side, 2 acyl side, 3 side chain; on linkers, the order of the positions; unused ones are H or OH. Bridge positions count the residues as written; N and C are the ends. Square brackets hold non-standard residues; d marks the D form. Peptide text beside a SMILES is read from it. * marks the point of attachment. Piz(1,6-dehydro) = O=C(O)[C@@H]1CCC=NN1; X2 = O=C([C@@H]1CCCNN1[*:1])[*:2]; X1 = CCCCC[C@H](CC(=O)O)C(=O)* Bounds are passed on as bounds.

Data set [1] addresses T1, E. coli PDF (Escherichia coli, UniProt P0A6K3). The experiment in a line: In vitro PDF inhibition assay, E. coli PDF, fML-pNA colorimetric coupled. Type of data set: biochemical. As to conditions: in vitro inhibition of E. coli PDF (10 nM); fML-pNA 20 µM; Aeromonas aminopeptidase 0.8 U/mL; lydiamycin A 0-50 µM; HEPES buffer pH 7.5, 1% DMSO; 405 nm, room temperature; sigmoidal fit of initial velocities; n = 3 independent experiments, SD.

Data set [2] deals with R. fascians D188-5.
Data set [3] has as its system R. fascians D188 WT. The settings on record: 72 h.
For data set [4], the system named is Nicotiana plants.
The subject of data set [5] is mycobacteria. As to conditions: cited from earlier work.
Data set [6] relates to R. fascians D188-5. The data set is described as follows: In planta competition assay, WT or Δlyd against plasmid-free D188-5. As to conditions: N. benthamiana seedlings, 1:1 mixtures, 1 wk; WT vs Δlyd relative fitness P = 0.0068, two-tailed t test.
The target of data set [7] is T1, E. coli PDF. The data set is described as follows: Michaelis-Menten kinetics of E. coli PDF with fML-pNA. Type of data set: biochemical. As to conditions: substrate fML-pNA, 405 nm, room temperature; 1% DMSO.

T1 sequence (P0A6K3 whole entry): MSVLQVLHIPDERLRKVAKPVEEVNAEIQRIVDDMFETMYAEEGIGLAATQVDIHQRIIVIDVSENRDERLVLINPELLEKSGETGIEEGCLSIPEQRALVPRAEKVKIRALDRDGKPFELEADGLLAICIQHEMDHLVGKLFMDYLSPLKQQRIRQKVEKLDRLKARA

On to `CCCCC[C@H](CC(=O)O)C(=O)N1N=CCC[C@H]1C(=O)N[C@H]1COC(=O)[C@@H]2CCCNN2C(=O)[C@H](C)NC(=O)[C@@H](CC(C)C)NC1=O` [lydiamycin A] (X1-[Piz(1,6-dehydro)]S[dL]A[X2]; ester 2-C), for which the IC50 in data set [1] was 6 µM. Further, the MIC in data set [2] (72 h) is 10 µg/mL (≈ 15.1 µM); in data set [3], more than 600 µg/mL. Moreover, the “sensitivity of R. fascians D188-5 relative to R. fascians WT” value in data set [2] (D188-5 more sensitive than WT, from the MICs) is on record as “at least 60 times”. For the same molecule, in data set [4] (WT versus Δlyd, plant or leafy gall mass at 4 wk), the “role of lydiamycin A production in leafy gall disease development” value was “not required for leafy gall disease development”. The phytotoxic activity result in data set [4] (concluded from plant/gall mass, seedling root length and excised leaf assays, R. fascians WT versus Δlyd) is “does not have phytotoxic activity”. Further, in data set [5], the inhibition of mycobacteria entry was “previously shown to display antimycobacterial activity”. Besides, in data set [6], the “fitness effect of lydiamycin production in competition with D188-5” value was “significant fitness benefit”.

Consider “formyl-methionyl-leucyl-p-nitroaniline [fML-pNA]”, for which, in data set [7], the Km worked out at 27 µM and the kcat was found to be 7 s⁻¹.

For orientation: IC50 means the midpoint of a concentration-inhibition curve. The term MIC denotes the lowest concentration that inhibits growth of the organism. High values mean a less susceptible organism, low ones a more susceptible organism. Broadly, the Km is the concentration of substrate that gives half-maximal velocity. The kcat is the maximal rate divided by the concentration of active sites.
